Measurements: publication PMC7429318 (Journal of controlled release : official journal of the …, 2020)

System: MDCKII cells
Assay: Transwell permeability assay across MDCKII monolayer
Format: in vitro ADME, canine
Conditions: transwell (2D), LY 100 μM

Lucifer yellow CH-lithium salt [LY]
permeability in transwell assay (2D): about 3 × 10^−7 cm s^−1
